Assay results: patent US20260042764A1, “COMPOSITIONS AND METHODS FOR INHIBITION OF KRAS” (TheRas, Inc., priority 2022, published 2026)

These compounds were tested against T1, Avi-KRAS G12D (1-169) GppNHp/RAF1 RBD-3xFLAG (52-151) (Homo sapiens, UniProt P01116, G12D) (assay: Raf1-KRAS G12D-GppNHP disruption HTRF assay (Biological Example 1)). Details: KRAS G12D, GppNHp-loaded; class symbols.
T1 construct: Avi-KRAS G12D (1-169)
T1 sequence (P01116 1-169 isoform P01116-2 G12D): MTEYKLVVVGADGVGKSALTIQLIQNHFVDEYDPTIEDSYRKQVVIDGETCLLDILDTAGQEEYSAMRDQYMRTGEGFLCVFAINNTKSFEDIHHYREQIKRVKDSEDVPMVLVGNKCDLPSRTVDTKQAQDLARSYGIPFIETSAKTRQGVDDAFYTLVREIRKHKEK
Format: binding
Procedure, shortened: (§1)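 Measured with a KRAS/RAF1 HTRF assay at pH 7.5 in 10% DMSO, with two 1 h room-temperature incubations with shaking.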
For `N#Cc1c(N)sc2c(F)ccc(-c3c(C(F)(F)F)cc4c(N5CC6CC(C5)O6)nc(OC[C@]56C[C@@H](F)CN5CC5(CC5)C6)nc4c3F)c12` [Compound 594], the IC50 was 1000 to 10000 nM.
Compound `N#Cc1c(N)sc2c(F)ccc(-c3c(C(F)(F)F)cc4c(N5C[C@H]6C[C@@H]5CO6)nc(OC[C@]56C[C@@H](F)CN5CC5(CC5)C6)nc4c3F)c12` [Compound 595] has an IC50 of 1000 to 10000 nM.
Compound `CCN(c1nc(OC[C@@]23CCCN2C[C@H](F)C3)nc2c(F)c(-c3ccc(F)c4sc(N)c(C#N)c34)c(C(F)(F)F)cc12)[C@H]1CCN(C(=O)C2C[C@@H]2C)C1` (stereo partly drawn) [Compound 604] has an IC50 of less than 100 nM.
Compound `N#Cc1c(N)sc2c(F)ccc(-c3c(C(F)(F)F)cc4c(N5CCn6nc(C(=O)N7CCC7)cc6C5)nc(OCC56CCCN5CC(F)C6)nc4c3F)c12` (stereo not drawn) [Compound 626] has an IC50 of 100 to 1000 nM.
For `N#Cc1c(N)sc2c(F)ccc(-c3c(C(F)(F)F)cc4c(N5CCn6nc(C(=O)N7CCCC7)cc6C5)nc(OCC56CCCN5CC(F)C6)nc4c3F)c12` (stereo not drawn) [Compound 627], the IC50 was less than 100 nM.
`CCN(CC)C(=O)c1cc2n(n1)CCN(c1nc(OCC34CCCN3CC(F)C4)nc3c(F)c(-c4ccc(F)c5sc(N)c(C#N)c45)c(C(F)(F)F)cc13)C2` (stereo not drawn) [Compound 645] was tested, and the IC50 was 100 to 1000 nM.

What follows are compounds tested against T2, Avi-KRAS G12V (1-169) GppNHp/RAF1 RBD-3xFLAG (52-151) (Homo sapiens, UniProt P01116, G12V) (assay: Raf1-KRAS G12V-GppNHP disruption HTRF assay (Biological Example 1)). Details: KRAS G12V, GppNHp-loaded; class symbols.
T2 construct: Avi-KRAS G12V (1-169)
T2 sequence (P01116 1-169 isoform P01116-2 G12V): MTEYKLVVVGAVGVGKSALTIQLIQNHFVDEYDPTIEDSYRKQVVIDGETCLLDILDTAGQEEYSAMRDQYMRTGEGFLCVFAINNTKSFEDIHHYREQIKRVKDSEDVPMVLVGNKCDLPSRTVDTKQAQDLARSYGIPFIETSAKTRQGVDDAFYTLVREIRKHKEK
Format: binding
Procedure, shortened: as §1
In the case of `N#Cc1c(N)sc2c(F)ccc(-c3c(C(F)(F)F)cc4c(N5CC6CC(C5)O6)nc(OC[C@]56C[C@@H](F)CN5CC5(CC5)C6)nc4c3F)c12` [Compound 594], the IC50 is reported as 1000 to 10000 nM.
`N#Cc1c(N)sc2c(F)ccc(-c3c(C(F)(F)F)cc4c(N5C[C@H]6C[C@@H]5CO6)nc(OC[C@]56C[C@@H](F)CN5CC5(CC5)C6)nc4c3F)c12` [Compound 595] was tested, and the IC50 was 1000 to 10000 nM.
In the case of `CCN(c1nc(OC[C@@]23CCCN2C[C@H](F)C3)nc2c(F)c(-c3ccc(F)c4sc(N)c(C#N)c34)c(C(F)(F)F)cc12)[C@H]1CCN(C(=O)C2C[C@@H]2C)C1` (stereo partly drawn) [Compound 604], the IC50 is reported as less than 100 nM.
Compound `N#Cc1c(N)sc2c(F)ccc(-c3c(C(F)(F)F)cc4c(N5CCn6nc(C(=O)N7CCC7)cc6C5)nc(OCC56CCCN5CC(F)C6)nc4c3F)c12` (stereo not drawn) [Compound 626] has an IC50 of 100 to 1000 nM.
Work on `N#Cc1c(N)sc2c(F)ccc(-c3c(C(F)(F)F)cc4c(N5CCn6nc(C(=O)N7CCCC7)cc6C5)nc(OCC56CCCN5CC(F)C6)nc4c3F)c12` (stereo not drawn) [Compound 627] yielded an IC50 of less than 100 nM.
In the case of `CCN(CC)C(=O)c1cc2n(n1)CCN(c1nc(OCC34CCCN3CC(F)C4)nc3c(F)c(-c4ccc(F)c5sc(N)c(C#N)c45)c(C(F)(F)F)cc13)C2` (stereo not drawn) [Compound 645], the IC50 is reported as 100 to 1000 nM.

These compounds were tested against T3, Avi-KRAS G12R (1-169) GppNHp/RAF1 RBD-3xFLAG (52-151) (Homo sapiens, UniProt P01116, G12R) (assay: Raf1-KRAS G12R-GppNHP disruption HTRF assay (Biological Example 1)). Details: KRAS G12R, GppNHp-loaded; class symbols.
T3 construct: Avi-KRAS G12R (1-169)
T3 sequence (P01116 1-169 isoform P01116-2 G12R): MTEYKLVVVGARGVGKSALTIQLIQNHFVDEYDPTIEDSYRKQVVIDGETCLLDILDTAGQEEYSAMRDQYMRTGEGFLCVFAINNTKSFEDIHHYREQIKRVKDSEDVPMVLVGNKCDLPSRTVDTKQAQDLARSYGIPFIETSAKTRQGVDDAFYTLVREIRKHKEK
Format: binding
Procedure, shortened: as §1
`N#Cc1c(N)sc2c(F)ccc(-c3c(C(F)(F)F)cc4c(N5CC6CC(C5)O6)nc(OC[C@]56C[C@@H](F)CN5CC5(CC5)C6)nc4c3F)c12` [Compound 594] showed an IC50 of 1000 to 10000 nM.
`N#Cc1c(N)sc2c(F)ccc(-c3c(C(F)(F)F)cc4c(N5C[C@H]6C[C@@H]5CO6)nc(OC[C@]56C[C@@H](F)CN5CC5(CC5)C6)nc4c3F)c12` [Compound 595] was tested, and the IC50 was 1000 to 10000 nM.
Work on `CCN(c1nc(OC[C@@]23CCCN2C[C@H](F)C3)nc2c(F)c(-c3ccc(F)c4sc(N)c(C#N)c34)c(C(F)(F)F)cc12)[C@H]1CCN(C(=O)C2C[C@@H]2C)C1` (stereo partly drawn) [Compound 604] yielded an IC50 of less than 100 nM.
`N#Cc1c(N)sc2c(F)ccc(-c3c(C(F)(F)F)cc4c(N5CCn6nc(C(=O)N7CCC7)cc6C5)nc(OCC56CCCN5CC(F)C6)nc4c3F)c12` (stereo not drawn) [Compound 626] showed an IC50 of 100 to 1000 nM.
`N#Cc1c(N)sc2c(F)ccc(-c3c(C(F)(F)F)cc4c(N5CCn6nc(C(=O)N7CCCC7)cc6C5)nc(OCC56CCCN5CC(F)C6)nc4c3F)c12` (stereo not drawn) [Compound 627] gave an IC50 of less than 100 nM.
`CCN(CC)C(=O)c1cc2n(n1)CCN(c1nc(OCC34CCCN3CC(F)C4)nc3c(F)c(-c4ccc(F)c5sc(N)c(C#N)c45)c(C(F)(F)F)cc13)C2` (stereo not drawn) [Compound 645] showed an IC50 of 100 to 1000 nM.

These compounds were tested on SW620 cells (KRAS G12V) (assay: Cell-based pERK HTRF assay in SW620 cell (Biological Example 4)). Details: Homo sapiens, SW-620, SW620 (KRAS G12V) cells, pERK HTRF; class symbols.
Procedure, shortened: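 SW620 cells were treated for 4 h with compound in a 9-point half-log series from 1 μM top (0.25% DMSO), then lysed. Phospho-ERK was detected by HTRF with d2 and Eu cryptate antibodies after 4–24 h at room temperature, read at 615 nm emission.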
Compound `N#Cc1c(N)sc2c(F)ccc(-c3c(C(F)(F)F)cc4c(N5CC6CC(C5)O6)nc(OC[C@]56C[C@@H](F)CN5CC5(CC5)C6)nc4c3F)c12` [Compound 594] has an IC50 of less than 100 nM.
Compound `N#Cc1c(N)sc2c(F)ccc(-c3c(C(F)(F)F)cc4c(N5C[C@H]6C[C@@H]5CO6)nc(OC[C@]56C[C@@H](F)CN5CC5(CC5)C6)nc4c3F)c12` [Compound 595] has an IC50 of less than 100 nM.
Compound `CCN(c1nc(OC[C@@]23CCCN2C[C@H](F)C3)nc2c(F)c(-c3ccc(F)c4sc(N)c(C#N)c34)c(C(F)(F)F)cc12)[C@H]1CCN(C(=O)C2C[C@@H]2C)C1` (stereo partly drawn) [Compound 604] has an IC50 of less than 100 nM.
Work on `N#Cc1c(N)sc2c(F)ccc(-c3c(C(F)(F)F)cc4c(N5CCn6nc(C(=O)N7CCC7)cc6C5)nc(OCC56CCCN5CC(F)C6)nc4c3F)c12` (stereo not drawn) [Compound 626] yielded an IC50 of less than 100 nM.
With `N#Cc1c(N)sc2c(F)ccc(-c3c(C(F)(F)F)cc4c(N5CCn6nc(C(=O)N7CCCC7)cc6C5)nc(OCC56CCCN5CC(F)C6)nc4c3F)c12` (stereo not drawn) [Compound 627] the IC50 was less than 100 nM.
With `CCN(CC)C(=O)c1cc2n(n1)CCN(c1nc(OCC34CCCN3CC(F)C4)nc3c(F)c(-c4ccc(F)c5sc(N)c(C#N)c45)c(C(F)(F)F)cc13)C2` (stereo not drawn) [Compound 645] the IC50 was less than 100 nM.

Each compound was assayed against T4, Avi-KRAS WT (1-169) GppNHp/RAF1 RBD-3xFLAG (52-151) (Homo sapiens, UniProt P01116) (assay: Raf1-KRAS WT-GppNHP disruption HTRF assay (Biological Example 1)). Details: KRAS WT, GppNHp-loaded; class symbols.
T4 construct: Avi-KRAS WT (1-169)
T4 sequence (P01116 1-169 isoform P01116-2): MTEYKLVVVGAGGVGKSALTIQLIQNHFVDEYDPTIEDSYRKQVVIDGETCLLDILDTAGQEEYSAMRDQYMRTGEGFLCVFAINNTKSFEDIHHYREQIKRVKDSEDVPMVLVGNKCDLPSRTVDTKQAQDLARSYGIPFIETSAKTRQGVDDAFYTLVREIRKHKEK
Format: binding
Procedure, shortened: as §1
Compound `N#Cc1c(N)sc2c(F)ccc(-c3c(C(F)(F)F)cc4c(N5CC6CC(C5)O6)nc(OC[C@]56C[C@@H](F)CN5CC5(CC5)C6)nc4c3F)c12` [Compound 594] has an IC50 of 1000 to 10000 nM.
With `N#Cc1c(N)sc2c(F)ccc(-c3c(C(F)(F)F)cc4c(N5C[C@H]6C[C@@H]5CO6)nc(OC[C@]56C[C@@H](F)CN5CC5(CC5)C6)nc4c3F)c12` [Compound 595] the IC50 was 1000 to 10000 nM.
`CCN(c1nc(OC[C@@]23CCCN2C[C@H](F)C3)nc2c(F)c(-c3ccc(F)c4sc(N)c(C#N)c34)c(C(F)(F)F)cc12)[C@H]1CCN(C(=O)C2C[C@@H]2C)C1` (stereo partly drawn) [Compound 604] showed an IC50 of less than 100 nM.
`N#Cc1c(N)sc2c(F)ccc(-c3c(C(F)(F)F)cc4c(N5CCn6nc(C(=O)N7CCC7)cc6C5)nc(OCC56CCCN5CC(F)C6)nc4c3F)c12` (stereo not drawn) [Compound 626] gave an IC50 of 100 to 1000 nM.
Work on `N#Cc1c(N)sc2c(F)ccc(-c3c(C(F)(F)F)cc4c(N5CCn6nc(C(=O)N7CCCC7)cc6C5)nc(OCC56CCCN5CC(F)C6)nc4c3F)c12` (stereo not drawn) [Compound 627] yielded an IC50 of 100 to 1000 nM.
Work on `CCN(CC)C(=O)c1cc2n(n1)CCN(c1nc(OCC34CCCN3CC(F)C4)nc3c(F)c(-c4ccc(F)c5sc(N)c(C#N)c45)c(C(F)(F)F)cc13)C2` (stereo not drawn) [Compound 645] yielded an IC50 of 100 to 1000 nM.

The compounds below were run on GP2d cells (KRAS G12D) (assay: Cell-based pERK HTRF assay in GP2d cell (Biological Example 2)). Details: GP2d, GP2d (KRAS G12D) cells, pERK HTRF; class symbols.
Procedure, shortened: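 Cells grown in DMEM with 10% FBS were exposed to compound for 60 min at 0.25% DMSO, using a 9-point half-log series starting at 1 μM or 100 nM. Lysates were then mixed with d2 and Eu cryptate antibodies for 4–24 h at room temperature, and pERK was read by HTRF.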
`N#Cc1c(N)sc2c(F)ccc(-c3c(C(F)(F)F)cc4c(N5CC6CC(C5)O6)nc(OC[C@]56C[C@@H](F)CN5CC5(CC5)C6)nc4c3F)c12` [Compound 594] showed an IC50 of less than 100 nM.
Work on `N#Cc1c(N)sc2c(F)ccc(-c3c(C(F)(F)F)cc4c(N5C[C@H]6C[C@@H]5CO6)nc(OC[C@]56C[C@@H](F)CN5CC5(CC5)C6)nc4c3F)c12` [Compound 595] yielded an IC50 of less than 100 nM.
`CCN(c1nc(OC[C@@]23CCCN2C[C@H](F)C3)nc2c(F)c(-c3ccc(F)c4sc(N)c(C#N)c34)c(C(F)(F)F)cc12)[C@H]1CCN(C(=O)C2C[C@@H]2C)C1` (stereo partly drawn) [Compound 604] was tested, and the IC50 was less than 100 nM.
With `N#Cc1c(N)sc2c(F)ccc(-c3c(C(F)(F)F)cc4c(N5CCn6nc(C(=O)N7CCC7)cc6C5)nc(OCC56CCCN5CC(F)C6)nc4c3F)c12` (stereo not drawn) [Compound 626] the IC50 was less than 100 nM.
`N#Cc1c(N)sc2c(F)ccc(-c3c(C(F)(F)F)cc4c(N5CCn6nc(C(=O)N7CCCC7)cc6C5)nc(OCC56CCCN5CC(F)C6)nc4c3F)c12` (stereo not drawn) [Compound 627] was tested, and the IC50 was less than 100 nM.
For `CCN(CC)C(=O)c1cc2n(n1)CCN(c1nc(OCC34CCCN3CC(F)C4)nc3c(F)c(-c4ccc(F)c5sc(N)c(C#N)c45)c(C(F)(F)F)cc13)C2` (stereo not drawn) [Compound 645], the IC50 was less than 100 nM.
